Test [1] concerns the target T1, flag-tagged HIF1α (AA 786-826) / His6-tagged p300 (AA 323-423) complex (Homo sapiens, UniProt Q09472).
T1 construct: His6-tagged p300 (AA 323-423); made in house; host or cells: E. coli (pETDuet vector)
The test can be described thus: HIF1α p300 displacement assay (TR FRET, +CHAPS). To be noted: read-out: IC50 (nM) (HIF1α_p300 Displacement + CHAPS). The test is classed as binding. The procedure, abridged: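 In this TR-FRET displacement format, peptides compete HIF1α C-terminal transactivation domain off p300-CH. They were preincubated 1 h at room temperature with 300 nM complex in HEPES pH 7.4/NaCl buffer with 7.5 mM CHAPS and 1 mM DTT. Anti-His-D2 (4 nM) and anti-Flag-K (0.5 μM) followed for 2 h, and a one-site fit of the fluorescence ratio gave IC50.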

The subject of test [2] is HRE-bla ME-180 cells. The test can be described thus: Cell proliferation assay (viability, MTT, 1% FBS). In kind it is cell-based, human. The procedure, abridged:
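Viable cell number was measured with the CellTiter 96 (MTT) kit after compounds were applied for a 16 h normoxic (21% O2) pretreatment, followed by further normoxic or hypoxic (1% O2) culture. Cells: 2×10^4 ME-180 per well, Opti-MEM + 1% FBS, 0.5% DMSO vehicle.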

The test system of test [3] is HRE-bla ME-180 cells. The test can be described thus: Reporter gene assay (HRE-bla ME-180 HIF reporter, GeneBLAzer). In kind it is cell-based, human. The note with it: for EC50: 24 hour normoxia. The procedure, abridged:
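A FRET β-lactamase readout of HIF transcription was used. After compound treatment in 0.3% DMSO/media under normoxic conditions, 20 μl of 6× LiveBLAzer-FRET B/G (CCF4-AM) substrate was added. Plates sat 3 hr at room temperature in the dark and were read at 409 Ex/460Em and 409Ex/530Em on a Synergy 2. Inhibition was compared against DMSO vehicle controls, with chetomin as positive control.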
A general note: A reporter such as luciferase makes a cellular process visible.

Bridge positions count the residues as written; N and C are the ends. Square brackets hold non-standard residues; d marks the D form. Peptide text beside a SMILES is read from it. Phe(4-COOH) = N[C@@H](Cc1ccc(C(=O)O)cc1)C(=O)O; S5 = C=CCCC[C@](C)(N)C(=O)O; Nle = CCCC[C@H](N)C(=O)O

For orientation: IC50 means the midpoint of a concentration-inhibition curve. One may read the EC50 as the concentration at which the effect is half-maximal. As to `CC[C@H](C)[C@H](NC(=O)[C@H](Cc1ccccc1)NC(C)=O)C(=O)N[C@@H](CC(=O)O)C(=O)N[C@@H](CCC(=O)O)C(=O)N[C@@H](CCC(=O)O)C(=O)N[C@H](C(=O)N[C@@H](CC(C)C)C(=O)N[C@@H](CCSC)C(=O)N[C@@]1(C)CCCC=CCCC[C@@](C)(C(=O)N[C@@H](CCSC)C(=O)N[C@@H](C)C(=O)N[C@@H](Cc2ccccc2)C(N)=O)NC(=O)[C@H]([C@@H](C)CC)NC(=O)[C@H](C(C)C)NC(=O)[C@H](CC(C)C)NC1=O)C(C)C` [SP-226] (Ac-FIDEEVLM[S5]LVI[S5]MAF-NH2; staple 9-13), the IC50 in test [1] lay within 400 to 700 nM. In addition, the “Viability 1% FBS AVG (MTT V3-24 hr Normoxia) (μM)” value (“Viability 1% FBS AVG” below) in test [2] is given as “++++ (≥30: ++++)”. In addition, in test [3], the “18 h Avg % max inhibition at top conc (HIF Rptr-24 hrs normoxia) (μM)” value (from here on “18 h Avg % max inhibition at top conc”) was “++ (≤10 but <25: ++)” and the half-maximal effective concentration (EC50) is above 30 µM.

In the case of `CCCC[C@H](NC(=O)[C@H](C)NC(=O)[C@H](CCSC)NC(=O)[C@]1(C)CCCC=CCCC[C@](C)(NC(=O)[C@H](CCSC)NC(=O)[C@H](CC(C)C)NC(=O)[C@@H](NC(=O)[C@H](CCC(=O)O)NC(=O)[C@H](CCC(=O)O)NC(=O)[C@H](CC(=O)O)NC(=O)[C@@H](NC(=O)[C@H](Cc2ccccc2)NC(C)=O)[C@@H](C)CC)C(C)C)C(=O)N[C@@H](CC(C)C)C(=O)N[C@@H](C(C)C)C(=O)N[C@@H]([C@@H](C)CC)C(=O)N1)C(N)=O` [SP-227] (Ac-FIDEEVLM[S5]LVI[S5]MA[Nle]-NH2; staple 9-13), the 50% inhibitory concentration (IC50) in test [1] was above 700 nM. Also, in test [2], the “Viability 1% FBS AVG” value is given as “++++ (≥30: ++++)”. For the same compound, in test [3], the “18 h Avg % max inhibition at top conc” value was “++ (≤10 but <25: ++)” and the 50% effective concentration (EC50) is above 30 µM.

For `CC[C@H](C)[C@H](NC(=O)[C@H](Cc1ccccc1)NC(C)=O)C(=O)N[C@@H](CC(=O)O)C(=O)N[C@@H](Cc1ccc(C(=O)O)cc1)C(=O)N[C@@H](CCC(=O)O)C(=O)N[C@H](C(=O)N[C@@H](CC(C)C)C(=O)N[C@@H](CCSC)C(=O)N[C@@]1(C)CCCC=CCCC[C@@](C)(C(=O)N[C@@H](CCSC)C(=O)N[C@@H](C)C(=O)N[C@@H](Cc2ccccc2)C(N)=O)NC(=O)[C@H]([C@@H](C)CC)NC(=O)[C@H](C(C)C)NC(=O)[C@H](CC(C)C)NC1=O)C(C)C` [SP-228] (Ac-FID[Phe(4-COOH)]EVLM[S5]LVI[S5]MAF-NH2; staple 9-13), the 50% inhibitory concentration (IC50) in test [1] was 200 to 400 nM. Further, the “Viability 1% FBS AVG” value in test [2] is recorded as “++++ (≥30: ++++)”. Besides, in test [3], the “18 h Avg % max inhibition at top conc” value is listed as “+++ (≤25 but <50: +++)” and the half-maximal effective concentration (EC50) was above 30 µM.

In the case of `CC[C@H](C)[C@H](NC(=O)[C@H](Cc1ccccc1)NC(C)=O)C(=O)N[C@@H](CO)C(=O)N[C@@H](CCC(=O)O)C(=O)N[C@@H](CCC(=O)O)C(=O)N[C@H](C(=O)N[C@@H](CC(C)C)C(=O)N[C@@H](CCSC)C(=O)N[C@@]1(C)CCCC=CCCC[C@@](C)(C(=O)N[C@@H](CCSC)C(=O)N[C@@H](C)C(=O)N[C@@H](CC(C)C)C(N)=O)NC(=O)[C@H]([C@@H](C)CC)NC(=O)[C@H](C(C)C)NC(=O)[C@H](CC(C)C)NC1=O)C(C)C` [SP-230] (Ac-FISEEVLM[S5]LVI[S5]MAL-NH2; staple 9-13), the 50% inhibitory concentration (IC50) in test [1] was in the range of 400 to 700 nM. Also, the “Viability 1% FBS AVG” value in test [2] is “++++ (≥30: ++++)”. Moreover, in test [3], the “18 h Avg % max inhibition at top conc” value was “+ (<10: +)” and the half-maximal effective concentration (EC50) is above 30 µM.

With `CC[C@H](C)[C@H](NC(=O)[C@H](Cc1ccccc1)NC(C)=O)C(=O)N[C@@H](CC(=O)O)C(=O)N[C@@H](CCC(=O)O)C(=O)N[C@@H](CCC(N)=O)C(=O)N[C@H](C(=O)N[C@@H](CC(C)C)C(=O)N[C@@H](CCSC)C(=O)N[C@@]1(C)CCCC=CCCC[C@@](C)(C(=O)N[C@@H](CCSC)C(=O)N[C@@H](C)C(=O)N[C@@H](CC(C)C)C(N)=O)NC(=O)[C@H]([C@@H](C)CC)NC(=O)[C@H](C(C)C)NC(=O)[C@H](CC(C)C)NC1=O)C(C)C` [SP-234] (Ac-FIDEQVLM[S5]LVI[S5]MAL-NH2; staple 9-13), the IC50 in test [1] was in the range of 400 to 700 nM. Further, the “Viability 1% FBS AVG” value in test [2] was “++++ (≥30: ++++)”. In test [3], the “18 h Avg % max inhibition at top conc” value is listed as “+++ (≤25 but <50: +++)” and the EC50 was above 30 µM.

(Values after patent US20190225650A1, “PEPTIDOMIMETIC MACROCYCLES AND USE THEREOF IN REGULATING HIF1ALPHA” (AILERON THERAPEUTICS, INC., priority 2013, published 2019).)
